In PubChem BioAssay AID248 (DTP/NCI, 2004):
Where “and” joins values, the source holds several entries; their conditions need not be identical. Equal values may be shown once. Toxic doses and inconclusive results are not listed. Rule as the data show it: active = T/C of 150% or more; inactive = T/C below 125%.

Test system: L1210 leukemia ip in BDF1 mice, survival T/C
Assay: NCI In Vivo Anticancer Drug Screen. Data for tumor model L1210 Leukemia (intraperitoneal) in B6D2F1 (BDF1) mice
Conditions: endpoint: mean survival time, higher = longer survival
How it was run: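 Tumor was transplanted into mice, which were then dosed with test compound or vehicle alone. Survival was recorded for each group, and the treated figure was expressed relative to the control figure.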

[1] = dose: 100.0 mg/kg/injection, schedule: Q04DX002 (ip), vehicle: Klucel (hydroxypropylcellulose) (HPC)
[2] = dose: 200.0 mg/kg/injection, schedule: Q04DX002 (ip), vehicle: Klucel (hydroxypropylcellulose) (HPC)
[3] = dose: 400.0 mg/kg/injection, schedule: Q04DX002 (ip), vehicle: Klucel (hydroxypropylcellulose) (HPC)
[4] = dose: 100.0 mg/kg/injection, schedule: Q04DX003 (ip), vehicle: saline with Tween-80
[5] = dose: 200.0 mg/kg/injection, schedule: Q04DX003 (ip), vehicle: saline with Tween-80
[6] = dose: 400.0 mg/kg/injection, schedule: Q04DX003 (ip), vehicle: saline with Tween-80
[7] = dose: 100.0 mg/kg/injection, schedule: Q01DX001 (ip), vehicle: saline
[8] = dose: 200.0 mg/kg/injection, schedule: Q01DX001 (ip), vehicle: saline
[9] = dose: 400.0 mg/kg/injection, schedule: Q01DX001 (ip), vehicle: saline
[10] = dose: 100.0 mg/kg/injection, schedule: Q01DX009 (ip), vehicle: saline with Tween-80
[11] = dose: 25.0 mg/kg/injection, schedule: Q01DX009 (ip), vehicle: Klucel (hydroxypropylcellulose) (HPC)
[12] = dose: 50.0 mg/kg/injection, schedule: Q01DX009 (ip), vehicle: Klucel (hydroxypropylcellulose) (HPC)
[13] = dose: 100.0 mg/kg/injection, schedule: Q01DX009 (ip), vehicle: Klucel (hydroxypropylcellulose) (HPC)
[14] = dose: 200.0 mg/kg/injection, schedule: Q01DX009 (ip), vehicle: Klucel (hydroxypropylcellulose) (HPC)
[15] = dose: 200.0 mg/kg/injection, schedule: Q01DX009 (ip), vehicle: saline with Tween-80
[16] = dose: 400.0 mg/kg/injection, schedule: Q01DX009 (ip), vehicle: Klucel (hydroxypropylcellulose) (HPC)
[17] = dose: 400.0 mg/kg/injection, schedule: Q01DX009 (ip), vehicle: saline with Tween-80
[18] = dose: 100.0 mg/kg/injection, schedule: Q04DX003 (ip), vehicle: Klucel (hydroxypropylcellulose) (HPC)
[19] = dose: 200.0 mg/kg/injection, schedule: Q04DX003 (ip), vehicle: Klucel (hydroxypropylcellulose) (HPC)
[20] = dose: 100.0 mg/kg/injection, schedule: Q04DX002 (ip), vehicle: saline with Tween-80
[21] = dose: 200.0 mg/kg/injection, schedule: Q04DX002 (ip), vehicle: saline with Tween-80
[22] = dose: 400.0 mg/kg/injection, schedule: Q04DX002 (ip), vehicle: saline with Tween-80
[23] = dose: 100.0 mg/kg/injection, schedule: Q01DX001 (ip), vehicle: saline with Tween-80
[24] = dose: 200.0 mg/kg/injection, schedule: Q01DX001 (ip), vehicle: saline with Tween-80
[25] = dose: 400.0 mg/kg/injection, schedule: Q01DX001 (ip), vehicle: saline with Tween-80
[26] = dose: 400.0 mg/kg/injection, schedule: Q04DX003 (ip), vehicle: Klucel (hydroxypropylcellulose) (HPC)
[27] = dose: 25.0 mg/kg/injection, schedule: Q04DX003 (ip), vehicle: Klucel (hydroxypropylcellulose) (HPC)
[28] = dose: 50.0 mg/kg/injection, schedule: Q04DX003 (ip), vehicle: Klucel (hydroxypropylcellulose) (HPC)

Measured: T/C

O=C1OC(c2ccccc2)=N/C1=C\c1ccccc1
inactive: dose: 50.0 mg/kg/injection, schedule: Q01DX001 (ip), vehicle: carboxymethylcellulose (CMC) 93 % of control | dose: 100.0 mg/kg/injection, schedule: Q01DX001 (ip), vehicle: carboxymethylcellulose (CMC) 95 % of control | dose: 100.0 mg/kg/injection, schedule: Q04DX002 (ip), vehicle: gum acacia 91 % of control | dose: 200.0 mg/kg/injection, schedule: Q01DX001 (ip), vehicle: carboxymethylcellulose (CMC) 101 % of control | dose: 200.0 mg/kg/injection, schedule: Q04DX002 (ip), vehicle: gum acacia 109 % of control | dose: 400.0 mg/kg/injection, schedule: Q01DX001 (ip), vehicle: carboxymethylcellulose (CMC) 90 % of control | dose: 400.0 mg/kg/injection, schedule: Q04DX002 (ip), vehicle: gum acacia 98 % of control

CCCCCCCCCCCCCCCCCCNC(=O)NCc1ccncc1
inactive: [1] 94 % of control | [2] 123 % of control | [3] 87 % of control

O=C1N/C(=N\OCCc2ccccc2)CC(NOCCc2ccccc2)N1 (configuration not stated)
inactive: [4] 94 % of control | [5] 94 % of control | [6] 97 % of control

CC(C)(Cl)C(N)=O
inactive: [7] 101 % of control | [8] 103 % of control | [9] 97 % of control

CCC1(c2ccccc2)C(=O)N(Cl)C(=O)N(Cl)C1=O
inactive: dose: 25.0 mg/kg/injection, schedule: Q01DX009 (ip), vehicle: saline with Tween-80 98 % of control | dose: 50.0 mg/kg/injection, schedule: Q01DX009 (ip), vehicle: saline with Tween-80 98 % of control | [10] 93 % of control

COc1cc(Cl)ccc1NC(=O)Oc1ccccc1C(N)=O
inactive: dose: 6.25 mg/kg/injection, schedule: Q01DX009 (ip), vehicle: Klucel (hydroxypropylcellulose) (HPC) 102 % of control | dose: 12.5 mg/kg/injection, schedule: Q01DX009 (ip), vehicle: Klucel (hydroxypropylcellulose) (HPC) 91 % of control | [11] 97 % of control | [12] 91 % of control | [13] 100 % of control

C=C(CCCC)CNCCOC(=O)c1ccc([N+](=O)[O-])cc1
inactive: dose: 12.5 mg/kg/injection, schedule: Q04DX003 (ip), vehicle: saline 98 % of control | dose: 25.0 mg/kg/injection, schedule: Q04DX003 (ip), vehicle: saline 93 % of control | dose: 50.0 mg/kg/injection, schedule: Q04DX003 (ip), vehicle: saline 100 % of control

CC1(c2ccco2)NC(=O)NC1=O (configuration not stated)
inactive: [13] 94 % of control | [10] 91 % of control | [4] 111 % of control and 101 % of control | [14] 100 % of control | [15] 95 % of control | [5] 104 % of control and 114 % of control | [16] 105 % of control | [17] 98 % of control | [6] 111 % of control and 101 % of control

O=C(OCS(=O)c1ccccc1)c1ccccc1 (configuration not stated)
inactive: [18] 94 % of control | [19] 104 % of control

O=C(/N=N/C(=O)Oc1ccccc1)Oc1ccccc1
inactive: [7] 98 % of control | [8] 101 % of control | [9] 98 % of control

O=C(Nc1ccc([N+](=O)[O-])cc1Br)c1ccc(C(=O)Nc2ccc([N+](=O)[O-])cc2Br)cc1
inactive: [7] 97 % of control | [8] 105 % of control | [9] 103 % of control

CC1(C)Cc2cccc(C(=O)CCCN3CCCCC3)c2O1
inactive: [7] 104 % of control

O=C1NC(=O)C(Cc2ccc(Cl)cc2)C(=O)N1
inactive: [10] 103 % of control | [20] 93 % of control | [15] 98 % of control | [21] 101 % of control | [17] 98 % of control | [22] 101 % of control

C=CCc1cn(C2OC(COC(=O)c3ccccc3)C(OC(=O)c3ccccc3)C2OC(=O)c2ccccc2)c(=S)[nH]c1=O (configuration not stated)
inactive: dose: 100.0 mg/kg/injection, schedule: Q01DX005 (ip), vehicle: saline 95 % of control | dose: 200.0 mg/kg/injection, schedule: Q01DX005 (ip), vehicle: saline 98 % of control

COC(=O)c1ccccc1N(Cc1ccc(OC)c(OC)c1)S(=O)(=O)c1ccc(C)cc1
inactive: [7] 95 % of control | [8] 91 % of control | [9] 91 % of control

OCC(O)C(O)C(O)C(O)C(SCc1ccccc1)SCc1ccccc1 (configuration not stated)
inactive: [1] 98 % of control | [2] 92 % of control | [3] 92 % of control

O=C(NC/C(Br)=C/Br)Nc1cccc2ccccc12
inactive: [20] 97 % of control | [21] 90 % of control | [22] 97 % of control

O=C(C(Cl)Cl)N(O)c1ccccc1OCc1ccccc1
inactive: [23] 98 % of control | [24] 112 % of control | [25] 98 % of control

CN(C)C(=O)NCc1ccccc1
inactive: [18] 90 % of control | [19] 92 % of control | [26] 98 % of control

CC(c1ccccc1)C1CCCCC1 (configuration not stated)
inactive: [23] 96 % of control | [24] 96 % of control | [25] 91 % of control

CCCCCCCCCCCCNC(=O)Nc1ccc(C)cc1C
inactive: [13] 98 % of control | [18] 95 % of control | [14] 94 % of control | [19] 96 % of control | [16] 96 % of control | [26] 100 % of control

CN1C(=O)N(C)P1(Cl)(Cl)Cl
inactive: [20] 103 % of control | [21] 95 % of control | [22] 92 % of control

Nc1ccc(Nc2ccc(N)cc2)cc1
inactive: dose: 5.0 mg/kg/injection, schedule: Q01DX001 (ip), vehicle: saline 101 % of control | dose: 10.0 mg/kg/injection, schedule: Q01DX001 (ip), vehicle: saline 113 % of control

CC(C)NNC(=O)c1ccccc1N
inactive: [11] 103 % of control | [27] 96 % of control | [12] 98 % of control | [28] 89 % of control | [13] 93 % of control | [18] 91 % of control | [14] 92 % of control | [19] 100 % of control | [26] 94 % of control

CCCNC(C)(C)C(SSSC(c1cccs1)C(C)(C)NCCC)c1cccs1 (configuration not stated)
inactive: dose: 12.5 mg/kg/injection, schedule: Q01DX009 (ip), vehicle: saline 101 % of control | dose: 12.5 mg/kg/injection, schedule: Q04DX003 (ip), vehicle: Klucel (hydroxypropylcellulose) (HPC) 96 % of control | dose: 25.0 mg/kg/injection, schedule: Q01DX009 (ip), vehicle: saline 95 % of control | [27] 106 % of control | dose: 50.0 mg/kg/injection, schedule: Q01DX009 (ip), vehicle: saline 92 % of control | [28] 96 % of control | dose: 75.0 mg/kg/injection, schedule: Q01DX009 (ip), vehicle: Klucel (hydroxypropylcellulose) (HPC) 98 % of control | dose: 75.0 mg/kg/injection, schedule: Q01DX009 (ip), vehicle: saline 88 % of control | dose: 115.0 mg/kg/injection, schedule: Q01DX009 (ip), vehicle: Klucel (hydroxypropylcellulose) (HPC) 97 % of control | dose: 170.0 mg/kg/injection, schedule: Q01DX009 (ip), vehicle: Klucel (hydroxypropylcellulose) (HPC) 96 % of control | dose: 170.0 mg/kg/injection, schedule: Q01DX009 (ip), vehicle: saline 89 % of control
